In brackets after ≈: the same amount, converted by molar mass.
Legend:
[1] = tested on: P. aeruginosa resistant strains; test: Sensitivity test against clinical isolates, agar plate dilution method; format: cell-based
Description: The test procedures were based on the agar plate dilution method in accordance with the standard method of The Japanese Chemotherapy Society. The minimum inhibitory concentration (MIC) was determined in substantially the same manner as the test procedures II above using the 54 strains of P. aeruginosa having an anti-Pseudomonas resistance.

[2] = tested on: Providencia rettgeri IFO 3850; test: Antibacterial test, agar plate dilution method (MIC), standard strains; format: cell-based; conditions: MH agar, 37°C, 18 hours
Description: (§1) The antibacterial activities were tested by an agar plate dilution method in accordance with the standard method of The Japanese Chemotherapy Society [Chemotherapy, Vol. 29, 76-79 (1981)].
(§2) A Mueller-Hinton (MH) agar liquid medium of a test microorganism was cultured overnight at 37°C and the resultant culture medium was diluted with a buffered saline gelatin (BSG) solution to contain approximately 10⁶ cells of the test microorganisms per milliliter, and then the diluted solution was inoculated with a microplanter at the rate of approximately 5 microliters on a MH agar medium containing a test compound. This medium was then incubated at 37°C for 18 hours. The minimum inhibitory concentration (MIC) is determined as a minimum concentration in which no test microorganism could grow. It is noted here that the test organisms used were all standard strains.

[3] = tested on: Pseudomanas aeruginosa NCTC 10940; test: as above; format: cell-based; conditions: MH agar, 37°C, 18 hours
Description: as §1, §2

[4] = tested on: Salmonella enteritidis G14; test: as above; format: cell-based; conditions: Salmonella enterica, MH agar, 37°C, 18 hours, read-out: MIC
Description: as §1, §2

Proteus vulgaris OX-19 = test: as above; format: cell-based; conditions: Proteus vulgaris OX-19; MH agar, 37°C, 18 hours
Description: as §1, §2

[5] = tested on: Proteus mirabilis IFO3849; test: as above; format: cell-based; conditions: Proteus mirabilis IFO3849; MH agar, 37°C, 18 hours
Description: as §1, §2

[6] = tested on: Pseudomonas aeruginosa IFO 3445; test: as above; format: cell-based; conditions: MH agar, 37°C, 18 hours
Description: as §1, §2

Salmonella typhi 901 = test: as above; format: cell-based; conditions: MH agar, 37°C, 18 hours
Description: as §1, §2

[7] = tested on: Salmonella paratyphi 1015; test: as above; format: cell-based; conditions: MH agar, 37°C, 18 hours
Description: as §1, §2

[8] = tested on: Salmonella schottmuelleri 8006; test: as above; format: cell-based; conditions: MH agar, 37°C, 18 hours
Description: as §1, §2

[9] = tested on: Morganella morganii IFO3848; test: as above; format: cell-based; conditions: MH agar, 37°C, 18 hours
Description: as §1, §2

[10] = tested on: Serratia marcescens IAM1184; test: as above; format: cell-based; conditions: MH agar, 37°C, 18 hours
Description: as §1, §2

Proteus vulgaris HX-19 = test: as above; format: cell-based; conditions: Proteus vulgaris HX-19; MH agar, 37°C, 18 hours
Description: as §1, §2

[11] = tested on: male mice of CrjCD(SD) strain; test: Toxicity, intravenous administration to mice, observation for one week; format: in vivo; conditions: 500 mg/kg administered intravenously; group of 10 male mice
Description: Toxicological studies were carried out using a group of 10 male mice of CrjCD(SD) strain weighing from 20 to 23 grams. A solution containing the crystalline carbapenem compound (20) of the present invention obtained by Example 11 was administered intravenously to the mice and subjected to observations for one week.

Proteus morganii GN 5375 = test: Antibacterial activity against clinically isolated β-lactamase (cephalosporinase) producing strains (MIC); format: cell-based; conditions: Morganella morganii, GN5375, cephalosporinase producing strain, SDA, 18 to 20 hours
Description: (§3) The antibacterial activities against clinically isolated β-lactamase producing strains were tested by the agar plate dilution method in accordance with the standard method of The Japanese Chemotherapy Society [Chemotherapy, Vol. 29, 76-79 (1981)]. A solution of a cephalosporinase producing strain stored by Episome Research Institute, prepared by incubating the strain in a sensitivity test broth (STB; product of Nissui K. K.) for 18 hours, was diluted with a fresh STB solution so that the solution contained 10⁶ cells per milliliter. The diluted solution was then inoculated as spots in a microplanter on a sensitivity disk agar-N (SDA; product of Nissui K. K.) containing a test compound. The disk agar was then incubated for 18 to 20 hours. The minimum inhibitory concentration was determined as a minimum concentration in which the test microorganism no longer grew after a 18 to 20-hour incubation.

[12] = tested on: Enterobacter cloacae GN 7467; test: as above; format: cell-based; conditions: Enterobacter cloacae, GN7467, Enterobacter cloacae GN 7467; cephalosporinase producing strain, SDA, 18 to 20 hours
Description: as §3

[13] = tested on: Pseudomonas aeruginosa GN 918; test: as above; format: cell-based; conditions: Pseudomonas aeruginosa, GN918, Pseudomonas aeruginosa GN 918; cephalosporinase producing strain, SDA, 18 to 20 hours
Description: as §3

[14] = tested on: Enterobacter cloacae GN 7471; test: as above; format: cell-based; conditions: cephalosporinase producing strain, SDA, 18 to 20 hours
Description: as §3

[15] = tested on: Pseudomonas cepacia GN 11164; test: as above; format: cell-based; conditions: cephalosporinase producing strain, SDA, 18 to 20 hours
Description: as §3

[16] = tested on: Klebsiella oxytoca GN 10650; test: as above; format: cell-based; conditions: Klebsiella oxytoca GN 10650; cephalosporinase producing strain, SDA, 18 to 20 hours
Description: as §3

Serratia marcescens L-65 = test: as above; format: cell-based; conditions: Serratia marcescens L-65; cephalosporinase producing strain, SDA, 18 to 20 hours
Description: as §3

Proteus morganii GN 5307 = test: as above; format: cell-based; conditions: Proteus morganii GN 5307; cephalosporinase producing strain, SDA, 18 to 20 hours
Description: as §3

[17] = tested on: Serratia marcescens GN 10857; test: as above; format: cell-based; conditions: Serratia marcescens GN 10857; cephalosporinase producing strain, SDA, 18 to 20 hours
Description: as §3

[18] = tested on: Citrobactor freundii GN 346; test: as above; format: cell-based; conditions: cephalosporinase producing strain, SDA, 18 to 20 hours
Description: as §3

[19] = tested on: Pseudomonas aeruginosa GN 10367; test: as above; format: cell-based; conditions: GN10367; Pseudomonas aeruginosa GN 10367; cephalosporinase producing strain, SDA, 18 to 20 hours; read-out: MIC
Description: as §3

Escherichia coli GN 5482 = test: as above; format: cell-based; conditions: cephalosporinase producing strain, SDA, 18 to 20 hours
Description: as §3

[20] = tested on: Providencia rettgeri GN 4762; test: as above; format: cell-based; conditions: Providencia rettgeri GN 4762; cephalosporinase producing strain, SDA, 18 to 20 hours
Description: as §3

Proteus vulgaris GN 4413 = test: as above; format: cell-based; conditions: Proteus vulgaris GN 4413; cephalosporinase producing strain, SDA, 18 to 20 hours
Description: as §3

Proteus vulgaris GN 7919 = test: as above; format: cell-based; conditions: Proteus vulgaris GN 7919; cephalosporinase producing strain, SDA, 18 to 20 hours
Description: as §3

[21] = tested on: Enterobacter cloacae GN 5797; test: as above; format: cell-based; conditions: cephalosporinase producing strain, SDA, 18 to 20 hours
Description: as §3

[22] = tested on: Providencia rettgeri GN 5284; test: as above; format: cell-based; conditions: cephalosporinase producing strain, SDA, 18 to 20 hours
Description: as §3

Serratia marcescens L-82 = test: as above; format: cell-based; conditions: cephalosporinase producing strain, SDA, 18 to 20 hours
Description: as §3

[23] = tested on: Citrobactor freundii GN 7391; test: as above; format: cell-based; conditions: cephalosporinase producing strain, SDA, 18 to 20 hours
Description: as §3

[24] = tested on: Escherichia coli No. 1501; test: as above; format: cell-based; conditions: cephalosporinase producing strain, SDA, 18 to 20 hours
Description: as §3

[25] = tested on: Providencia rettgeri GN 4430; test: as above; format: cell-based; conditions: cephalosporinase producing strain, SDA, 18 to 20 hours
Description: as §3

Proteus morganii GN 5407 = test: as above; format: cell-based; conditions: Morganella morganii, GN5407, cephalosporinase producing strain, SDA, 18 to 20 hours
Description: as §3

Proteus vulgaris GN 76 = test: as above; format: cell-based; conditions: Proteus vulgaris GN 76; cephalosporinase producing strain, SDA, 18 to 20 hours
Description: as §3

[26] = tested on: Pseudomonas aeruginosa GN 10362; test: as above; format: cell-based; conditions: cephalosporinase producing strain, SDA, 18 to 20 hours
Description: as §3

Escherichia coli No. 96 = test: as above; format: cell-based; conditions: cephalosporinase producing strain, SDA, 18 to 20 hours
Description: as §3

C[C@@H](O)[C@H]1C(=O)N2C(C(=O)[O-])=C(SCc3cs[n+](C)n3)[C@H](C)[C@H]12 [Crystalline Compd. (20), (1R,5S,6S)-2-[(2-methyl-1,2,3-thiadiazolium-4-yl)methyl]thio-6-[(R)-1-hydroxyethyl]-1-methyl-carbapenem-3-carboxylate]
concentration to inhibit the growth of all the test microorganisms [1]: 6.25 µg/mL | percent of strains inhibited at 3.13 µg/mL ([1]; Pseudomonas aeruginosa, read-out: test microorganisms whose growth is inhibited): ~99% | MIC [2]: 0.025 µg/mL (≈ 0.0703 µM) | MIC [3]: 0.2 µg/mL (≈ 0.563 µM) | MIC [4]: 0.78 µg/mL (≈ 2.19 µM) | MIC (Proteus vulgaris OX-19): 1.56 µg/mL (≈ 4.39 µM) | MIC [5]: 3.13 µg/mL (≈ 8.81 µM) | MIC [6]: 0.39 µg/mL (≈ 1.1 µM) | MIC (Salmonella typhi 901): 0.013 µg/mL (≈ 0.0366 µM) | MIC [7]: 1.56 µg/mL (≈ 4.39 µM) | MIC [8]: 0.39 µg/mL (≈ 1.1 µM) | MIC [9]: 0.2 µg/mL (≈ 0.563 µM) | MIC [10]: 0.78 µg/mL (≈ 2.19 µM) | MIC (Proteus vulgaris HX-19): 1.56 µg/mL (≈ 4.39 µM) | toxicity, observations for one week [11]: alive without any abnormal observations | MIC (Proteus morganii GN 5375): 1.56 µg/mL (≈ 4.39 µM) | MIC [12]: 1.56 µg/mL (≈ 4.39 µM) | MIC [13]: 1.56 µg/mL (≈ 4.39 µM) | MIC [14]: 0.1 µg/mL (≈ 0.281 µM) | MIC [15]: 0.39 µg/mL (≈ 1.1 µM) | MIC [16]: 0.2 µg/mL (≈ 0.563 µM) | MIC (Serratia marcescens L-65): 0.39 µg/mL (≈ 1.1 µM) | MIC (Proteus morganii GN 5307): 0.78 µg/mL (≈ 2.19 µM) | MIC [17]: 3.13 µg/mL (≈ 8.81 µM) | MIC [18]: 0.78 µg/mL (≈ 2.19 µM) | MIC [19]: 3.13 µg/mL (≈ 8.81 µM) | MIC (Escherichia coli GN 5482): 0.05 µg/mL (≈ 0.141 µM) | MIC [20]: 0.2 µg/mL (≈ 0.563 µM) | MIC (Proteus vulgaris GN 4413): 3.13 µg/mL (≈ 8.81 µM) | MIC (Proteus vulgaris GN 7919): 0.78 µg/mL (≈ 2.19 µM) | MIC [21]: 0.1 µg/mL (≈ 0.281 µM) | MIC [22]: 0.39 µg/mL (≈ 1.1 µM) | MIC (Serratia marcescens L-82): 0.2 µg/mL (≈ 0.563 µM) | MIC [23]: 0.78 µg/mL (≈ 2.19 µM) | MIC [24]: 0.05 µg/mL (≈ 0.141 µM) | MIC [25]: 0.39 µg/mL (≈ 1.1 µM) | MIC (Proteus morganii GN 5407): 1.56 µg/mL (≈ 4.39 µM) | MIC (Proteus vulgaris GN 76): 3.13 µg/mL (≈ 8.81 µM) | MIC [26]: 0.78 µg/mL (≈ 2.19 µM) | MIC (Escherichia coli No. 96): 0.05 µg/mL (≈ 0.141 µM)
